The target in this assay is human TRPA1 (Homo sapiens (Human), UniProt O75762). Put plainly: Measurement of TRPA1 antagonist activity (2): as (1), different lot of human TRPA1 expression plasmid. The assay is classed as cell-based. To be noted: 293T cells transfected with human TRPA1, allylisothiocyanate 20 μM stimulation, calcium fluorescence, read-out: hTRPA1 IC50. The essentials: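 HEK293T cells transiently transfected with human TRPA1 plasmid (different lot), loaded with Calcium4 dye in HBSS/20 mM HEPES pH 7.2. Test compound preincubated 10 min, then allylisothiocyanate added at 20 μM final and fluorescence change read for 5 min. IC50 from sigmoid fit of inhibition relative to AITC-alone and buffer controls.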
human TRPA1, sequence (O75762 whole entry): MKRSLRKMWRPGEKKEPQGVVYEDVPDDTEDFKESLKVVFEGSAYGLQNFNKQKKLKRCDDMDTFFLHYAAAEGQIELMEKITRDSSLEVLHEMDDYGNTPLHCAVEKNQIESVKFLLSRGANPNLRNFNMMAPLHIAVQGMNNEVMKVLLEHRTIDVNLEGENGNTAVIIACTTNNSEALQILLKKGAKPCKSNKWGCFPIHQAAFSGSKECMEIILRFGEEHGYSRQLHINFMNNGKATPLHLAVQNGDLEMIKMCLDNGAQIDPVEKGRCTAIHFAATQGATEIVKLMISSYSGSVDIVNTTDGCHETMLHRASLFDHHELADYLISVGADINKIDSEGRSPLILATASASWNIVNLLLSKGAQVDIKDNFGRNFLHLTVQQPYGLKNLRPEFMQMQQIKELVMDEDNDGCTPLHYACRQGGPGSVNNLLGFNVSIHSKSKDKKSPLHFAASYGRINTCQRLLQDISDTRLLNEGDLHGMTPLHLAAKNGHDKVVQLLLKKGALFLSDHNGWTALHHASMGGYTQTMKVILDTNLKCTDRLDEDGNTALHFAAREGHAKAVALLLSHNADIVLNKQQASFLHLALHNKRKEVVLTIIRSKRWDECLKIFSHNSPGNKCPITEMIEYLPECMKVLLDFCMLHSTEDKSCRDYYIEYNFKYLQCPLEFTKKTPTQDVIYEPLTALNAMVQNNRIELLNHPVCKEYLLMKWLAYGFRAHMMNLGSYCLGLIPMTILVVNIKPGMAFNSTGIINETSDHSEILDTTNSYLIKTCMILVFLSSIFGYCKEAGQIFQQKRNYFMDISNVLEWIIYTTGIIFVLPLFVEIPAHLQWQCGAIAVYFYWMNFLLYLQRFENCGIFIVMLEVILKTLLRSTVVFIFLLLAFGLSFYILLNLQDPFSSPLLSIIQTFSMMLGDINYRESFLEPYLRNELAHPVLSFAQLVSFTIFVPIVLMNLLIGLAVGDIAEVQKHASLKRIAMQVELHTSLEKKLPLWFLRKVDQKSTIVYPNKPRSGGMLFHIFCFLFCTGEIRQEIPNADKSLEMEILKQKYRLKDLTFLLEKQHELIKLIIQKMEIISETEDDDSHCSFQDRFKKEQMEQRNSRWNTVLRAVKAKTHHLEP

As usually defined, the IC50 is the concentration that gives 50% inhibition. Regarding `O=C(NCc1cc(-c2ncc(C(F)(F)F)cn2)ccn1)[C@@H]1CCCN1S(=O)(=O)c1cc2cc(F)ccc2o1` [Example 407, (2S)-1(5-fluorobenzofuran-2-yl)sulfonyl-N-[[4-[5-(trifluoromethyl)pyrimidin-2-yl]-2-pyridyl]methyl]pyrrolidine-2-carboxamide], the half-maximal inhibitory concentration (IC50) came out at 0.007 µM.

With `O=C(NCc1cc(-c2ccc(C(F)(F)F)nc2)ncn1)[C@@H]1CCN1S(=O)(=O)c1cc2ccccc2o1` [Example 408, (2S)-1-(benzofuran-2-ylsulfonyl)-N-[[6-[6-(trifluonomethyl)-3-pyridyl]pyrimidin-4-yl]methyl]azetidine-2-carboxamide], the half-maximal inhibitory concentration (IC50) amounted to 0.016 µM.

On to `O=C(NCc1cc(-c2cnc(C(F)(F)F)nc2)ncn1)[C@@H]1CCN1S(=O)(=O)c1cc2ccccc2o1` [Example 409, (2S)-1-(benzofuran-2-ylsulfonyl)-N-[[6-[2-(trifluoromethyl)pyrimidin-5-yl]pyrimidin-4-yl]methyl]azetidine-2-carboxamide], for which the 50% inhibitory concentration (IC50) is 0.029 µM.

In the case of `CN(C)c1nc(CNC(=O)[C@@H]2CCN2S(=O)(=O)c2cc3ccccc3o2)cc(-c2ccc(C(F)(F)F)nc2)n1` [Example 410, (2S)-1-(benzofuran-2-ylsulfonyl)-N-[[2-(dimethylamino)-6-[6-(trifluoromethyl)-3-pyridyl]pyrimidin-4-yl]methyl]azetidine-2-carboxamide], the IC50 worked out at 0.038 µM.

As to `O=C(NCc1ccnc(-c2ccc(C(F)(F)F)cc2O)c1)[C@@H]1CCN1S(=O)(=O)c1cc2ccccc2o1` [Example 411, (2S)-1-(benzofuran-2-ylsulfonyl)-N-[[2-[2-hydroxy-4-(trifluoromethyl)phenyl]-4-pyridyl]methyl]azetidine-2-carboxamide], the IC50 turned out to be 0.025 µM.

As for `O=C(NCc1cc(-c2ccc(C(F)(F)F)cc2O)ncn1)[C@@H]1CCN1S(=O)(=O)c1cc2cc(F)ccc2o1` [Example 412, (2S)-1-(5-fluorobenzofuran-2-yl)sulfonyl-N-[[6-[2-hydroxy-4-(trifluoromethyl)phenyl]pyrimidin-4-yl]methyl]azetidine-2-carboxamide], the IC50 is 0.0027 µM.

In the case of `CC(C)N(CC(=O)NCc1cc(-c2ccc(C(F)(F)F)cc2O)ncn1)S(=O)(=O)c1cc2cc(F)ccc2o1` [Example 413, 2-[(5-fluorobenzofuran-2-yl)sulfonyl-isopropyl-amino]-N-[[6-[2-hydroxy-4-(trifluoromethyl)phenyl]pyrimidin-4-yl]methyl]acetamide], the IC50 came out at 0.012 µM.

Regarding `C[C@H](NS(=O)(=O)c1cc2cnccc2o1)C(=O)NCc1cc(-c2ccc(C(F)(F)F)cc2O)ncn1` [Example 414, (2S)-2-(furo[3,2-c]pyridin-2-ylsulfonylamino)-N-[[6-[2-hydroxy-4-(trifluoromethyl)phenyl]pyrimidin-4-yl]methyl]propanamide], the IC50 worked out at 0.034 µM.

`CCN([C@@H](C)C(=O)NCc1cc(-c2ccc(C(F)(F)F)cn2)ccn1)S(=O)(=O)c1cc2cc(F)ccc2o1` [Example 416, (2S)-2-[ethyl-(5-fluorobenzofuran-2-yl)sulfonyl-amino]-N-[[4-[5-(trifluoromethyl)-2-pyridyl]-2-pyridyl]methyl]propanamide]: the 50% inhibitory concentration (IC50) stood at 0.0042 µM.

As for `C=CCN([C@@H](C)C(=O)NCc1cc(-c2ccc(C(F)(F)F)cn2)ccn1)S(=O)(=O)c1cc2cc(F)ccc2o1` [Example 417, (2S)-2-[allyl-(5-fluorobenzofuran-2-yl)sulfonyl-amino]-N-[[4-[5-(trifluoromethyl)-2-pyridyl]-2-pyridyl]methyl]propanamide], the IC50 turned out to be 0.014 µM.

As to `C#CCN([C@@H](C)C(=O)NCc1cc(-c2ccc(C(F)(F)F)cn2)ccn1)S(=O)(=O)c1cc2cc(F)ccc2o1` [Example 418, (2S)-2-[(5-fluorobenzofuran-2-yl)sulfonyl-prop-2-ynylamino]-N-[[4-[5-(trifluoromethyl)-2-pyridyl]-2-pyridyl]methyl]propanamide], the IC50 is 0.011 µM.

As to `CCN(CC(=O)NCc1cc(-c2ccc(C(F)(F)F)cc2)ncn1)S(=O)(=O)c1cc2cc(F)ccc2o1` [Example 419, 2-[ethyl-(5-fluorobenzofuran-2-yl)sulfonyl-amino]-N-[[6-[4-(trifluoromethyl)phenyl]pyrimidin-4-yl]methyl]acetamide], the concentration for half-maximal inhibition (IC50) worked out at 0.0041 µM.

With `CC(C)N(CC(=O)NCc1cc(-c2ccc(C(F)(F)F)cc2)ncn1)S(=O)(=O)c1cc2cc(F)ccc2o1` [Example 420, 2-[(5-fluorobenzofuran-2-yl)sulfonyl-isopropyl-amino]-N-[[6-[4-(trifluoromethyl)phenyl]pyrimidin-4-yl]methyl]acetamide], the IC50 stood at 0.01 µM.

Consider `C[C@@H](C(=O)NCc1cc(-c2ccc(C(F)(F)F)cc2)ncn1)N(C)S(=O)(=O)c1cc2cc(F)ccc2o1` [Example 421, (2S)-2-[(5-fluorobenzofuran-2-yl)sulfonyl-methyl-amino]-N-[[6-[4-(trifluoromethyl)phenyl]pyrimidin-4-yl]methyl]propanamide], for which the IC50 came out at 0.0029 µM.

On to `CCN([C@@H](C)C(=O)NCc1cc(-c2ccc(C(F)(F)F)cc2)ncn1)S(=O)(=O)c1cc2cc(F)ccc2o1` [Example 422, (2S)-2-[ethyl-(5-fluorobenzofuran-2-yl)sulfonyl-amino]-N-[[6-[4-(trifluoromethyl)phenyl]pyrimidin-4-yl]methyl]propanamide], for which the 50% inhibitory concentration (IC50) came out at 0.003 µM.

Turning to `O=C(CN(CC1CCNCC1)S(=O)(=O)c1cc2cc(F)ccc2o1)NCc1cc(-c2ccc(C(F)(F)F)cn2)ccn1` [Example 423, 2-[(5-fluorobenzofuran-2-yl)sulfonyl-(4-piperidylmethyl)amino]-N-[[4-[5-(trifluoromethyl)-2-pyridyl]-2-pyridyl]methyl]acetamide], the IC50 is 0.033 µM.

Turning to `O=C(CN(CC1CCNCC1)S(=O)(=O)c1cc2cc(F)ccc2o1)NCc1cc(-c2ccc(C(F)(F)F)cc2)ncn1` [Example 424, 2-[(5-fluorobenzofuran-2-yl)sulfonyl-(4-piperidylmethyl)amino]-N-[[6-[4-(trifluoromethyl)phenyl]pyrimidin-4-yl]methyl]acetamide], the IC50 is 0.021 µM.

On to `C[C@@H](C(=O)NCc1cc(-c2ccc(C(F)(F)F)cn2)ccn1)N(C)S(=O)(=O)c1cc2cc(F)ccc2o1` [Example 426, (2S)-2-[(5-fluorobenzofuran-2-yl)sulfonyl-methyl-amino]-N-[[4-[5-(trifluoromethyl)-2-pyridyl]-2-pyridyl]methyl]propanamide], for which the half-inhibitory concentration (IC50) turned out to be 0.0077 µM.

On to `O=C(NCc1cc(-c2ccc(C(F)(F)F)cn2)ccn1)C(CF)NS(=O)(=O)c1cc2cc(F)ccc2o1` (stereo not shown) [Example 427, 3-fluoro-2-[(5-fluorobenzofuran-2-yl)sulfonylamino]-N-[[4-[5-(trifluoromethyl)-2-pyridyl]-2-pyridyl]methyl]propanamide], for which the IC50 came to 0.17 µM.

The record behind these values is patent US10626112B2, “Heterocyclic sulfonamide derivative and medicine comprising same” (EA PHARMA CO., LTD., priority 2014, dated 2020).
